{
  "source": "patent US20110223177A1",
  "about": "“TREATMENT OF FIBROTIC EYE DISORDERS” (UNIVERSITY OF EAST ANGLIA, priority 2008, published 2011)",
  "key": {"[1]": {"test_system": "phosphorylated (active) myosin in FHL124 cells", "test": "Western blot detection of phosphorylated (active) myosin in response to TGF-β", "format": "cell-based, human", "details": "15 μM ML7, 10 ng/ml TGF-β2, FHL124 cells", "method": "FIG. 2. Western blot detection of phosphorylated (active) myosin in response to 10 ng/ml TGF-β2 (Sigma, Poole, Dorset, UK). The data presented are pooled from 3 separate experiment. Each left hand bar of the bar pairs reports the result in the absence of ML7 (indicated as “−15 uM ML-7” in the key) and the right hand bar reports the result in the presence of 15 μM ML7 (indicated as “+15 uM ML-7” in the key). Beta actin was used as a control for equivalent protein amounts. * Indicates a significant difference from untreated control group (p<0.05; student's t-test).\nFHL-124 cells were washed with 1.5 ml PBS then lysed on ice in 0.5 mls Daubs lysis buffer; (50 mM HEPES pH 7.5, 150 mM NaCl, 1% Triton X-100, 1 mM EDTA, 10% glycerol, 10 mM sodium pyrophosphate, 2 mM sodium orthovanadate, 10 mM sodium fluoride, 250 mls ddH2O, 1 mM phenylmethylsulfonylfluoride and 10 μg/ml aprotinin. Lysates were pre-cleared by centrifuging at 13000 rpm at 4° C. for 10 min, and the protein content of the soluble fraction will be assayed by Bicinchoninic (BCA) protein assay. Equal amounts of protein per sample were loaded onto 10% SDS-PAGE gels for electrophoresis and transferred onto a polyvinylidene fluoride (PVDF) membrane with a BIO-RAD Trans-Blot semi-dry Transfer Cell. […] Gels were scanned using an HP scanjet 5470c and band intensity determined with Kodak 1D 3.5 software."}, "[2]": {"test_system": "human lens epithelial cell line FHL124", "test": "FHL124 patch growth/contraction assay", "format": "cell-based", "details": "FHL 124 patches", "method": "FIG. 3. TGF-β-induced matrix contraction is suppressed by the MLCK inhibitor ML7. FHL 124 cells were seeded to form patches and maintained in the following conditions: EMEM (Eagle's minimal essential medium—standard culture medium) supplemented with 5% FCS (fetal calf serum—control)±15 μM ML7 (myosin light chain kinase inhibitor) (Calbiochem) for a 72 hour experimental period. In the graph, each left hand bar of the bar pairs reports the result in the absence of ML7 (indicated as “−15 uM ML-7” in the key) and the right hand bar reports the result in the presence of 15 μM ML7 (indicated as “[…]” in the key). Please note that numerical data can be obtained from these patches, which can be scrutinized by statistical analysis.\nFIG. 4. TGF-β-induced matrix contraction is promoted by the MLCP inhibitor tautomycin (Calbiochem). FHL 124 cells were seeded to form patches and maintained in the following conditions: EMEM (standard culture medium) supplemented with 5% FCS (control)±50 nM tautomycin (myosin phosphatase inhibitor); control+10 ng/ml TGFβ1±50 nM tautomycin; control+10 ng/ml TGFβ2±50 nM tautomycin for a 48 hour experimental period. […]\nFHL124 cells were seeded at 4 sites on a tissue culture dish at 5000 cells per site and maintained in EMEM supplemented with 5% FCS until confluent regions spanning approximately 5 mm developed. […] The cells were then washed in PBS and stained with Coomassie brilliant blue (a total protein dye) for 30 minutes to enable patches to be visualised and measured. […] Images of patches were captured on a CCD camera using GeneSnap and analysed using Scion image. After the patch area was measured, PBS medium was aspirated from the culture dish and replaced with 1 ml of 70% ethanol allowing Coomassie blue dye within the cells to be dissolved. […] A 200 μl sample of dye from each dish was placed in a clear plastic 96 well microtitre plate and the absorbance read at 550 nm using a plate reader. […]"}, "human lens capsular bags": {"test_system": "human lens capsular bags", "test": "Human lens capsular bag model", "format": "cell-based", "method": "FIG. 7. The effect of MLCK inhibition (using 15 μM ML7) on cell coverage of the previously cell-free posterior capsule of human capsular bags following 7 days of culture. The data represent Mean SEM (n=4). * Indicates a significant difference from control group. N.B. Control conditions are EMEM supplemented with 5% serum and 10 ng/ml TGFβ.\nFIG. 8. High (top row) and low power (bottom row) phase-contrast micrographs showing cells growing on the lens capsular bag treated with 10 ng/mL TGF-β in the presence or absence of ML7 (15 μM). Contraction (wrinkles) of the lens capsular bag is evident when treated with 10 ng/ml TGF-β alone.\nThe model first described by Liu, C. S. C., et al., (Invest. Ophthalmol. Vis. Sci. (1996), 37, pages, 906-914) was employed. Following removal of corneo-scleral discs for transplantation purposes, human donor eyes from the East Anglian Eye Banks, UK (obtained with full ethical approval—COREC form approved 1 Dec. 2004. Ref04/Q0102/57) were used to perform a sham cataract operation. The resulting capsular bag was then dissected free of the zonules and secured on a sterile 35 mm polymethylmethacrylate (PMMA) petri dish. […] Coverage and matrix modification of the previously cell-free posterior capsule were captured on a daily basis using low-power phase microscopy and quantified using analysis software. […]"}, "[3]": {"test_system": "cells growing on the lens capsular bag", "test": "Immunocytochemical analysis of capsular bags at end point", "format": "cell-based, human", "details": "15 μM ML7, 10 ng/ml TGF-β", "method": "FIG. 9. […] The fields of view represent 448×342 μm.\nPreparations were fixed for 30 minutes in 4% formaldehyde in PBS and permeabilised in PBS containing 0.5% Triton-X100, also for 30 minutes. Anti-CPI-17 and Anti-alpha smooth muscle actin was diluted 1:100 and applied for 60 min at 35° C., followed by washing. CPI-17 was visualised with ALEXA 488-conjugated secondary antibodies (Molecular Probes, Leiden, Netherlands). The F-actin cytoskeleton was stained with Texas Red-X-phalloidin and chromatin using DAPI (Molecular Probes, Leiden, Netherlands) for 10 min at room temperature. The stained preparations were again washed extensively, floated onto microscope slides and mounted in Hydromount mounting medium (National Diagnostics, Hull, UK). Images were viewed with a Zeiss epifluorescence microscope and Axiovision software.\nFrom the work on the cell line we chose to test ML7 i.e. the MLCK inhibitor. These studies were carried out on separate donors using a match paired format; one capsular bag was maintained in TGF-β and serum supplemented medium, while the other was maintained in TGF-β and serum supplemented medium plus 15 μM ML7. There is great consistency in cell behaviour from one eye to another from an individual donor; therefore the effects observed are due to the presence or absence of the inhibitor. […] This growth inhibition could be useful in the treatment of PCO as growth across the capsule is a critical component in the development of the condition, but this is a retardation of cell growth rather than ablation. […] In addition, we have carried out immunocytochemical analysis of the capsular bags at end point (FIG. 9)."}},
  "note": "Entries after “also recorded” stand apart in the source; their conditions may differ.",
  "data": [
    {"smiles": "O=S(=O)(c1cccc2c(I)cccc12)N1CCCNCC1", "note": "[ML7, (5-iodonaphthalene-1-sulfonyl)homopiperazine]", "values": [
      {"measurement": "TGFβ-induced myosin activation (phosphorylated myosin)", "setting": "[1]", "value": "significantly inhibited TGFβ-induced myosin activation"},
      {"measurement": "TGF-β-induced matrix contraction", "setting": "[2]; 15 μM ML7, 72 hour, EMEM + 5% FCS", "value": "significantly suppresses TGF-β-induced contraction; also recorded: significant reduction of TGF-β-induced contraction"},
      {"measurement": "TGF-β-induced matrix contraction (wrinkles) of the lens capsular bag", "setting": "human lens capsular bags; 15 μM ML7, 10 ng/ml TGF-β", "value": "does not give rise to wrinkle formation; also recorded: can suppress TGF-β-induced matrix contraction"},
      {"measurement": "cell coverage of the previously cell-free posterior capsule", "setting": "human lens capsular bags; 15 μM ML7, 7 days of culture, EMEM + 5% serum + 10 ng/ml TGFβ, control group 100% cover", "value": 80, "unit": "%"},
      {"measurement": "distribution of cell nuclei", "setting": "[3]", "value": "even distribution of cell nuclei"},
      {"measurement": "general organization of the cells", "setting": "[3]", "value": "cobblestone appearance"},
      {"measurement": "αSMA levels versus control bags", "setting": "[3]", "value": "similar"}
    ]},
    {"smiles": "CO[C@H]([C@H](O)CC(=O)[C@@H](C)[C@@H](O)CC[C@@H](C)[C@@H]1O[C@]2(CC[C@@H](C)[C@H](CC[C@H](C)C(C)=O)O2)CC[C@@H]1C)[C@H](OC(=O)C[C@@H](O)C1=C(C)C(=O)OC1=O)C(C)C", "note": "[tautomycin]", "values": [
      {"measurement": "TGF-β-induced matrix contraction", "setting": "[2]; 50 nM tautomycin, 10 ng/ml TGFβ1 or TGFβ2, 48 hour", "value": "speeded up the rate of contraction"},
      {"measurement": "TGF-β-induced matrix contraction", "setting": "[2]; 50 nM tautomycin, 10 ng/ml TGFβ1 or TGFβ2, 48 hour, listed as Tautomycin", "value": "significantly increases TGF-β-induced contraction"}
    ]}
  ]
}
